Data reported in patent publication US20050101002A1, “Process for production of low temperature active alkaline protease from a deep-sea fungus” (COUNCIL OF SCIENTIFIC & INDUSTRIAL RESEARCH, priority 2003, published 2005).
Entries after “also recorded” stand apart in the source; their conditions may differ.

System: protease of Aspergillus sp. MTCC 5102
Experiment: Protease assayed in the presence of EDTA, PMSF, HgCl2
Format: biochemical
Details: for Inhibition of protease activity (in words): assayed in the presence of the additive
Method: The said fungus Aspergillus sp. MTCC 5102 is grown in malt extract broth containing 2% malt extract and 0.3% peptone in sea water. The 7-day old fungal mat obtained this way was macerated and used as a starter inoculum for the experimental cultures containing glucose or cellulose at a concentration of 1% (w/v). Casein, spray-dried dairy whitener, soybean meal, molasses or corn steep liquor at a 1% concentration was used as the organic nitrogen source. The Czapek Dox broth to which the above mentioned nitrogen-containing substrates were added independently, contained 10 g glucose, 2 g NaNO3, 1 g K2HPO4, 0.5 g MgSO4, 0.5 g KCl and 0.01 g Fe2SO4 L^−1 medium. The pH of the medium was adjusted to 7.0 or 9.0. This medium was prepared with distilled water or sea water. The cultures were grown as shallow static cultures for 4-6 days. The cell-free clear supernatant obtained after filtration through GF/F filters followed by 0.22 μm Nuclepore filters was used as the source of alkaline protease. Protease activity was measured using Azocasein (Sigma Chemicals, Mo, USA) at 2% concentration. Azocasien Units (ACU) released at various temperatures and pH combinations were measured at 440 nm and expressed as an increase in absorbance by 0.001 in 1 minute (Alfredsson, G. A, Gudmundsson H. M., Xiang J. Y., Kristjansson M. M. 1995, Subtilisin-like serine proteases from psychrophilic marine bacteria. J. Mar. Biotech. 3: 71-72). Substrate and enzyme blanks were maintained for all the assays. All the assays were run in triplicates.
The said fungus Aspergillus sp. MTCC 5102 was grown as described in Example 1 and the clear supernatant was used for testing whether the protease enzyme was serine or metalloprotease. For this purpose the enzyme was assayed in the presence of 50 mM […] (EDTA), 2 mM phenylmethylsulfonyl fluoride (PMSF) and 200 μM mercuric chloride (HgCl2).

SMILES	% inhibition (2 mM) [%]	Residual specific activity (%) (2 mM)	Inhibition of protease activity (in words)	% inhibition (200 μM) [%]	Residual specific activity (%) (200 μM)	% inhibition (50 mM) [%]	Residual specific activity (%) (50 mM)
O=S(=O)(F)Cc1ccccc1 [PMSF, phenylmethylsulfonyl fluoride]	100	0	totally inhibited; also recorded: inhibition of the activity				
[Cl][Hg][Cl] [HgCl2, mercuric chloride]			not inhibited	14	86		
O=C(O)CN(CCN(CC(=O)O)CC(=O)O)CC(=O)O [EDTA, ethylenediamine tetraacetic acid]			not inhibited; also recorded: no inhibition of activity			6	94
